Patent publication US9326984B2, “Compounds and pharmaceutical compositions for treating disorders associated with the 5-HT1A and 5-HT2A receptors” (priority 2010, dated 2016)

Experiments:
5-HT1A receptors = biological target: T1, 5-HT1A receptors (Rattus norvegicus, UniProt P19327); assay: In vitro affinity (radioligand binding inhibition) assay, 3[H]-8-OH-DPAT, rat hippocampus; conditions: for inhibition at 0.03 µM: 30 nM; for inhibition at 0.03 µM / inhibition at 0.1 µM / IC50 / inhibition at 0.3 µM: rat hippocampus; for inhibition at 0.03 µM / inhibition at 0.1 µM / inhibition at 0.3 µM: read-out: 5-HT1A Inhibition Percentage; for inhibition at 0.1 µM: 100 nM; for IC50: 3[H]-8-OH-DPAT 1 nM, 3-3000 nM in duplicate, read-out: 5-HT1A CI50; for 5-HT2A/5-HT1A CI502A/CI501A: ratio of CI50 5-HT2A to CI50 5-HT1A; for inhibition at 0.3 µM: 300 nM; for 5-HT1A CI50 compared with the comparative compound: comparison in words/fold versus Flibanserin
T1 construct: The assay tissue was rat hippocampus; from tissue; host or cells: rat hippocampus
T1 sequence (P19327 1-422): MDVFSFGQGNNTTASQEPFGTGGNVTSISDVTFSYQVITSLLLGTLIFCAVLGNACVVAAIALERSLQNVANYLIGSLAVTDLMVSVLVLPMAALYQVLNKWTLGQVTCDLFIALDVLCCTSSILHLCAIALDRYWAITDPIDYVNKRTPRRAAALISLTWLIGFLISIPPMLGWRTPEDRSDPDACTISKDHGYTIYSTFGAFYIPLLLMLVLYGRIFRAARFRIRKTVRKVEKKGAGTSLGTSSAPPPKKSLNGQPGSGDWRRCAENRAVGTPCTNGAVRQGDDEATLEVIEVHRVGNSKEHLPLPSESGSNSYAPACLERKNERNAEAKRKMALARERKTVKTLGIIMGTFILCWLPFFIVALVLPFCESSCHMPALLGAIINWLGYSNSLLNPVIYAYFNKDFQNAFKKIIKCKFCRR
Procedure: (§1) The determination of the activity of the synthesized compounds was conducted through assays assessing affinity with the 5-HT1A and 5-HT2A serotonin receptors. The assays used are based on the binding ratings of the substances being tested at different concentrations, compared to the affinity in the single concentration of the radioligands (markers) that have a specific affinity for these receptors.
(§2) These assays, known as binding assays and also known as inhibition experiments, are able to determine the affinity of a substance through the receptor, provided that this substance is soluble under the assay conditions.
(§3) In an inhibition experiment, the quantity of an inhibitor substance (non radioactive—sample or compound being tested) included in the incubation is the only variable, meaning that it is possible to determine for each test drug concentration, the binding inhibition percentage of the radioligand.
(§4) CI50 is a value defined as the concentration of an unbranded substance (test sample) required to inhibit the specific binding of the radioligand in 50% of the receptors.
(§5) The affinity assays with the 5-HT1A and 5-HT2A receptors of the compounds addressed by this invention were conducted by the Biochemical and Molecular Pharmacology Laboratory at the Biomedical Science Institute in Rio de Janeiro Federal University (UFRJ), using its own protocols.
(§6) […] The development of the experiment protocol to assess compounds with affinity for the 5-HT1A receptors was developed on the basis of the experiments conducted by Hall et al (Journal of Neurochemistry (1985) 44: 1685-1696); Mongeau et al (Brain Research (1992) 590: 229-238) and Peroutka (Journal of Neurochemistry (1986) 47: 529-540). The 5-HT2A receptors were based on the studies conducted by Johnson et al (Naunyn-Schmiedeberg's Arch. Pharmacol. (1996) 354 (2): 205-209); Leysen et al (Molecular Pharmacology (1982) 21: 301-314) and Nelson et al (Journal of Pharmacology and Experimental Therapeutics (1993) 265: 1272-1279).
The affinity with the 5-HT1A receptors was assayed by using 3[H]-8-OH-DPAT (3[H]-8-hydroxy-N,N-dipropyl-2-aminotetraline) (1 nM) as a ligand, and 5-HT (5-hydroxytiptamine-serotonin) (10 μM) as a non-specific ligand. The assay tissue was rat hippocampus.
(§7) In order to determine the affinity with the 5-HT2A receptors, 3[H]-ketanserin (1 nM) was used as a ligand and ketanserin (1 μM) as a non-specific ligand. The assay tissue was rat cortex. Table 1 below summarizes the CI50 values obtained for the inventive compounds presented in Examples 1 and 8. In order to determine the CI50 of these compounds, the inhibition assays were conducted using the compounds at concentrations of 3, 10, 30, 100, 300, 1000 and 3000 nM (in duplicate) for both receptors.

5-HT2A receptors = biological target: T2, 5-HT2A receptors (Rattus norvegicus, UniProt P14842); assay: In vitro affinity (radioligand binding inhibition) assay, 3[H]-ketanserin, rat cortex; conditions: for inhibition at 0.3 µM / inhibition at 1 µM / inhibition at 3 µM: read-out: 5-HT2A Inhibition Percentage; for IC50: 3[H]-ketanserin 1 nM, rat cortex, 3-3000 nM in duplicate, read-out: 5-HT2A CI50; for 5-HT2A CI50/affinity compared with the comparative compound: comparison in words versus Flibanserin (and Example 1)
T2 construct: The assay tissue was rat cortex; from tissue; host or cells: rat cortex
Procedure: as §1, §2, §3, §4, §5, §6, §7

5-HT receptors = assay: In vivo efficacy test: Serotonin Syndrome Model in rats (modified Irwin method); design: species or system rat; conditions: 15 mg/kg intraperitoneal, observed 15, 30 and 60 minutes after administration
Procedure: For the efficacy assay, the compounds addressed by this invention were submitted to the modified Irwin assay. The assays were conducted by Porsolt, using a specific protocol for evaluation.
In order to determine the in vivo efficacy of the compounds addressed by this invention, the Serotonin Syndrome Model in rats was used. The model was based in the Irwin method (Psychopharmacologia (1968), 13: 222-257), adapted to assess the effects of seroton agonists pursuant to Martin et al (Journal of Pharmacol. Meth. (1985), 13: 193-200) and Ortman et al (Naunyn-Schmiedeberg's Arch. Pharmacol (1981), 316: 225-230).
Two animals from each group were assessed through a series of separate observations. Escitalopram was used as the positive control for the study.
Behavioral and physiological alterations as well as neurotoxicity symptoms, rectal temperature and pupil diameter were recorded.
Additionally, the specific signs related to the stimulation of the 5-HT receptors were observed and quantified, being: head twitches (HT), fore paw treading (FPT), flat body posture (FBP), hind limb splay (HLS), lower lip retraction (LLR) and spontaneous tail flicks (STF) (Straub).
The observations were conducted at 15, 30 and 60 minutes after administration of the compounds being tested.
The compounds were tested as set forth in Examples 1 and 7. As the comparative compound 1,3-dihydro-1-(2-(4-(3-(trifluoromethyl)phenyl)-1-piperazinyl)ethyl)-2H-benzimidizol-2-one (Flibanserin) was used. All the compounds were administered at a dose of 15 mg/kg, intraperitoneal.
The observations of the specific stimulation data of the 5-HT receptors by each compound are presented in the graph given in FIG. 1.

T2 sequence (P14842 whole entry): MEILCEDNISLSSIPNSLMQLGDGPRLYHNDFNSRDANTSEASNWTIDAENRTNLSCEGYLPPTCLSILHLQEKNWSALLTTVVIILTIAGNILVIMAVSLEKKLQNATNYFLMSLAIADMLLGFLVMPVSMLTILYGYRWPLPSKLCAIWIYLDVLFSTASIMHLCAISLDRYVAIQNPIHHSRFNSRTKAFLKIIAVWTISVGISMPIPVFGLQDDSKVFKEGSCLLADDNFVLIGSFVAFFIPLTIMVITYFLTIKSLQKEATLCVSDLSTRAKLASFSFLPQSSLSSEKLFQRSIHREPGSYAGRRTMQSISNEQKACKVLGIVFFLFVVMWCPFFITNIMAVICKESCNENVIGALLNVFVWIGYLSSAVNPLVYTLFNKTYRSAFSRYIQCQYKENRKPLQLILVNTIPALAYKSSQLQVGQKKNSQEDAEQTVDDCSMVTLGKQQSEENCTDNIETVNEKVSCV

| SMILES | inhibition at 0.03 µM (5-HT1A receptors) | inhibition at 0.1 µM (5-HT1A receptors) | inhibition at 0.3 µM (5-HT2A receptors) | inhibition at 1 µM (5-HT2A receptors) | IC50 (5-HT1A receptors) | 5-HT2A/5-HT1A CI502A/CI501A (5-HT1A receptors) | signs of stimulation of the 5-HT receptors (HT, FPT, FBP, HLS, LLR, STF) (5-HT receptors) | IC50 (5-HT2A receptors) | inhibition at 0.3 µM (5-HT1A receptors) | inhibition at 3 µM (5-HT2A receptors) | 5-HT1A CI50 compared with the comparative compound (5-HT1A receptors) | 5-HT2A CI50/affinity compared with the comparative compound (5-HT2A receptors) |
| --- | --- | --- | --- | --- | --- | --- | --- | --- | --- | --- | --- | --- |
| COc1ccccc1N1CCN(CCn2cnc3ccccc3c2=O)CC1 [Example 6, 3-(2-(4-(2-methoxyphenyl)piperazine-1-yl)ethyl)quinazoline-4 (3H)-one] | 38% | 66% | 43% | 63% |  |  |  |  |  |  |  |  |
| Cc1cccc(N2CCN(CCn3cnc4ccccc4c3=O)CC2)c1C [Example 3, 3-(2-(4-(2,3-dimethylphenyl)piperazine-1-yl)ethyl)quinazoline-4 (3H)-one] | 47% | 84% | 89% | 88% |  |  |  |  |  |  |  |  |
| O=c1[nH]c2ccccc2n1CCN1CCN(c2cccc(C(F)(F)F)c2)CC1 [Comparative Compound, 1.3-Dihydro-1-(2-(4-(3-(trifluoromethyl)phenyl)-1-piperazinyl)ethyl)-2H-benzimidizol-2-one, reference compound] |  |  |  |  | 47 nM | 9.6 | only one presented signs of stimulation of the 5-HT receptors, which were spontaneous tail flicks | 453 nM |  |  |  |  |
| CCOc1ccccc1N1CCN(CCn2c(CC)nc3ccccc3c2=O)CC1 [Example 10, 2-ethyl-3-(2-(4-(2-ethoxyphenyl)piperazine-1-yl)ethyl)quinazoline-4 (3H)-one] | 26% | 51% | 8% | 27% |  |  |  |  | 79% | 58% |  |  |
| N#Cc1ccccc1N1CCN(CCn2cnc3ccccc3c2=O)CC1 [Example 5, 3-(2-(4-(2-cyanophenyl)piperazine-1-yl)ethyl)quinazoline-4 (3H)-one] | 12% | 49% | 38% | 78% |  |  |  |  |  |  |  |  |
| Cc1ccccc1N1CCN(CCn2cnc3ccccc3c2=O)CC1 [Example 2, 3-(2-(4-o-tolylpiperazine-1-yl)ethyl)quinazoline-4 (3H)-one] | 21% | 51% | 61% | 82% |  |  |  |  |  |  |  |  |
| CCc1nc2ccccc2c(=O)n1CCN1CCN(c2cccc(C)c2C)CC1 [Example 8, 3-(2-(4-(2,3-dimethylphenyl)piperazine-1-yl)ethyl)-2-ethylquinazoline-4 (3H)-one] | 26% | 76% | 67% | 86% |  |  |  |  | 77% | 94% |  |  |
| CCc1nc2ccccc2c(=O)n1CCN1CCN(c2ccccc2OC)CC1 [Example 9, 2-ethyl-3-(2-(4-(2-methoxyphenyl)piperazine-1-yl)ethyl)quinazoline-4 (3H)-one] | 17% | 46% | 13% | 46% |  |  |  |  | 69% | 78% |  |  |
| CCc1nc2ccccc2c(=O)n1CCN1CCN(c2ccccc2Cl)CC1 [Example 11, 3-(2-(4-(2-chlorophenyl)piperazine-1-yl)ethyl)-2-ethylquinazoline-4 (3H)-one] | 5% | 26% | 25% | 52% |  |  |  |  | 38% | 79% |  |  |
| O=c1c2ccccc2ncn1CCN1CCN(c2cccc(C(F)(F)F)c2)CC1 [Example 1, 3-(2-(4-(3-(trifluoromethyl)phenyl)piperazine-1-yl)ethyl)quinazoline-4 (3H)-one] |  |  |  |  | 47 nM | 12 | triggered spontaneous tail flicks (STF) | 570 nM |  |  | the same CI50 value as the comparative compound | a value slightly higher than the value obtained for the comparative compounds |
| O=c1c2ccccc2ncn1CCN1CCN(c2ccccc2Cl)CC1 [Example 4, 3-(2-(4-(2-chlorophenyl)piperazine-1-yl)ethyl)quinazoline-4 (3H)-one] | 22% | 84% | 48% | 77% |  |  |  |  |  |  |  |  |
| CCc1nc2ccccc2c(=O)n1CCN1CCN(c2cccc(C(F)(F)F)c2)CC1 [Example 7, 2-ethyl-3-(2-(4-(3-(trifluoromethyl)phenyl)piperazine-1-yl)ethyl)quinazoline-4 (3H)-one] |  |  |  |  | 253 nM | 2.7 | triggered fore paw treading (FPT) and more spontaneous tail flicks (STF) | 707 nM |  |  | five times greater | greater affinity than the comparison compound and the compound in Example 1 |
